Patent publication US20170290328A1, “COMPOSITIONS AND METHODS FOR APPLYING AGRICULTURAL PRODUCTS” (priority 2014, published 2017)

Tests used:
Marestail [1] = experiment: Instigate Trials, weed control evaluation; assay type: in vivo
Procedure: (§1) Each treatment was comprised of Instigate applied at 3 oz product/ac, diluted and applied at 10 gallons/acre spray volume.
(§2) Trials were conducted in Indiana, North Dakota, and Ohio (1 location per state).
(§3) Weed species varied by location but included glyphosate resistant marestail or kochia. Weed control (herbicide efficacy) evaluations were taken at approximately 7, 14, and 28 days after herbicides were applied.

kochia [2] = experiment: Instigate Trials, weed control evaluation; assay type: in vivo; settings: North Dakota, 27 days after treatment, with methylated soybean oil and AU-110 and F emulsifiers
Procedure: as §1, §2, §3

wheat = experiment: Paraquat Concentrate Trials, weed control evaluation; assay type: in vivo; settings: North Dakota; Paraquat Concentrate 0.45 pt product/ac
Procedure: (§4) Each treatment was comprised of Paraquat Concentrate applied at 0.45 pt product/ac, diluted and applied at 10 gallons/acre spray volume.
as §2, §3

Marestail [3] = experiment: as above; assay type: in vivo; settings: Indiana; Paraquat Concentrate Trials (text prints Instigate)
Procedure: as §4, §2, §3

common lambsquarters = experiment: as above; assay type: in vivo; settings: North Dakota; Paraquat Concentrate 0.45 pt product/ac
Procedure: as §4, §2, §3

Marestail [4] = experiment: Roundup PowerMax Plus Sharpen Trials, weed control evaluation; assay type: in vivo
Procedure: (§5) Each treatment was comprised of a mixture of Roundup PowerMax (glyphosate potassium) at 11 oz/ac plus Sharpen (saflufenacil) diluted and applied at 10 gallons/acre spray volume. A-110 is a polymeric nonionic and alkyl and aryl ethoxylate blend emulsifier commercially available from Adjuvants Unlimited (Tulsa, Okla). Emulsifier “D” is a blend of polyoxyalkenes and ethoxylated castor oil and other components.
(§6) Trials were conducted in Indiana, North Dakota, and Ohio (1 location per state). Weed species varied by location but included glyphosate resistant marestail or kochia. Weed control (herbicide efficacy) evaluations were taken at approximately 7, 14, and 28 days after herbicides were applied.

kochia [5] = experiment: as above; assay type: in vivo; settings: North Dakota, 10% methyl salicylate substituted for methylated soybean oil
Procedure: as §5, §6

Marestail [6] = experiment: Additional field trial, Clarity + Roundup PowerMax with adjuvant formulations, weed control; assay type: in vivo, Conyza canadensis; settings: Clarity tank mixed with Roundup PowerMax, Example 2
Procedure: Additional field trials were performed that compared Sharpen (active ingredient: saflufenacil ([2-chloro-4-fluoro-5-(3-methyl-2,6-dioxo-4-(trifluoromethyl)-3, 6-dihydro-1(2H)-pyrimidinyl)benzoyl]-N-isopropyl-N-methylsulfamide)) or Clarity (active ingredient: diglycolamine salt of 3,6-dichloro-o-anisic acid) to formulations described herein.

COC(=O)c1ccccc1O [methyl salicylate]
marestail control (in words) (Marestail [1]; Indiana, Instigate 3 oz product/ac): did not increase marestail control | marestail control (in words) (Marestail [1]; Ohio, Instigate, with methylated soybean oil and F emulsifier): increased marestail control | kochia control (in words) (kochia [2]): numerically greater | wheat control (in words) (wheat): did not increase control | marestail control (in words) (Marestail [3]): did not increase marestail control | common lambsquarters control (in words) (common lambsquarters): did not increase control | marestail control (in words) (Marestail [4]; Indiana, Roundup PowerMax 11 oz/ac plus Sharpen): no increase in control | marestail control (in words) (Marestail [4]; Ohio, Roundup PowerMax 11 oz/ac plus Sharpen): numerically greater | marestail control (in words) (Marestail [4]; Ohio, Roundup PowerMax plus Sharpen, 14 days after treatment, with D emulsifier and F emulsifiers): greater | kochia control (in words) (kochia [5]; with the AU-110 or F emulsifier): not | kochia control (in words) (kochia [5]; with the D emulsifier): increased control | Change of control of glyphosate-resistant marestail (in words) (Marestail [6]): did not increase control
